Measured values: patent publication US11358962B2, “2-hetaryl imidazol[1,2-a]pyridine derivatives” (Hoffmann-La Roche Inc., priority 2013, dated 2022)

Test system: native tau aggregates
Test: TAU radioligand in vitro displacement assay ([3H]T808, autoradiography on human AD brain sections)
Type: binding
Conditions: compound 10 nM, radioligand [3H]T808 10 nM
Description: TAU Radioligand-In-Vitro Displacement Assay
This in vitro binding assay assesses the affinity of compounds for native tau aggregates.
AD human brains are purchased from Banner Sun Health Research Institute (Sun City, Ariz., USA). Pathological diagnosis of AD is made according to standard NIA-Reagan Institute criteria based on neuropathological data. The radioligand [^3H]T808 was synthesized in-house ([^3H]-2-[4-(2-Fluoro-ethyl)-piperidin-1-yl]-benzo[4,5]imidazo[1,2-a]pyrimidine, radiochemical purity 99.0%). As a reference cold T808 is used (2-[4-(2-Fluoro-ethyl)-piperidin-1-yl]-benzo[4,5]imidazo[1,2-a]pyrimidine). For the autoradiography FujiFilm Imaging Plates (BAS-IP TR 2025) are exposed to the sections and read with a FujiFilm IP reader (BAS-5000).
Ten μm thick human AD brain sections are generated with a cryostat (Leica CM3050) at −17° C. chamber temperature and −15° C. object temperature. Sections are transferred to Histobond+ microscope slides (Marienfeld Laboratory Glasware). After drying for 3 hours at room temperature the sections are stored at −20° C. The sections are incubated with the radioligand (10 nM) and the respective cold compound (at various concentrations) in 50 mM Tris buffer, pH 7.4 at room temperature for 30 min. After washing 3× 10 min at 4° C. in 50 mM Tris buffer, pH 7.4 and 3 quick dips in H2O dist. at 4° C. the sections are dried at 4° C. for 3 h. The sections are placed in a FujiFilm Cassette (BAS 2025), exposed with an Imaging Plate for five days and afterwards scanned with a resolution of […].
The signal intensity (Dens−PSL/mm2) in the region of interest (ROI) of the autoradiogram is quantified with the software MCID analysis (version 7.0, Imaging Research Inc.). The specific binding (SB) of [^3H]T808 binding in absence or in presence of a compound is calculated by subtracting the non-specific binding signal in the white matter, thus yielding SB[3H]T808 only and SBcompound. The % displacement by the various compounds is calculated as following: % displacement=100−(SBcompound/SB[3H]T808 only)*100. Validation Data
In each experiment cold T808 is used as a positive internal control. Co-incubation of equimolar amounts of hot and cold T808 is expected to reduce specific binding by approximately 50%.

% displacement of [3H]T808 (10 nM) at 10 nM [%] | Compound
11 | COc1ccc(-c2cn3ccc(N4CC[C@@H](F)C4)cc3n2)cc1 [7 (R), (R)-7-(3-Fluoropyrrolidin-1-yl)-2-(4-methoxyphenyl)imidazo[1,2-a]pyridine]
40 | FCCNc1ccn2cc(-c3ccccc3)nc2c1 [Example 1, N-(2-Fluoroethyl)-2-phenylimidazo[1,2-a]pyridin-7-amine 2,2,2-trifluoroacetate]
50 | CN(CCF)c1ccn2cc(-c3ccccc3)nc2c1 [Example 2, N-(2-Fluoroethyl)-N-methyl-2-phenylimidazo[1,2-a]pyridin-7-amine]
61 | CNc1ccn2cc(-c3ccccc3)nc2c1 [Example 4, N-Methyl-2-phenylimidazo[1,2-a]pyridin-7-amine]
33 | COc1cccc(-c2cn3ccc(N4CCCC4)cc3n2)c1 [Example 9, 2-(3-Methoxy-phenyl)-7-pyrrolidin-1-yl-imidazo[1,2-a]pyridine]
27 | COc1ccc(-c2cn3ccc(N4CCCC4)cc3n2)cc1 [Example 11, 2-(4-Methoxy-phenyl)-7-pyrrolidin-1-yl-imidazo[1,2-a]pyridine]
26 | COc1ccc(-c2cn3ccc(N4CCC(F)CC4)cc3n2)cc1 [Example 14, 7-(4-Fluoro-piperidin-1-yl)-2-(4-methoxy-phenyl)-imidazo[1,2-a]pyridine]
33 | COc1ccc(-c2cn3ccc(N4CCN(CCF)CC4)cc3n2)cc1 [Example 15, 7-[4-(2-Fluoro-ethyl)-piperazin-1-yl]-2-(4-methoxy-phenyl)-imidazo[1,2-a]pyridine]
37 | CN(C)c1ccn2cc(-c3ccc(OCCF)cc3)nc2c1 [Example 17, {2-[4-(2-Fluoro-ethoxy)-phenyl]-imidazo[1,2-a]pyridin-7-yl}-dimethyl-amine]
46 | CN(C)c1ccn2cc(-c3ccc(OCF)cc3)nc2c1 [Example 18, [2-(4-Fluoromethoxy-phenyl)-imidazo[1,2-a]pyridin-7-yl]-dimethyl-amine]
37 | CNc1ccn2cc(-c3ccc4c(c3)OCCO4)nc2c1 [Example 19, [2-(2,3-Dihydro-benzo[1,4]dioxin-6-yl)-imidazo[1,2-a]pyridin-7-yl]-methyl-amine]
35 | COc1ccc(-c2cn3ccc(N(C)C)cc3n2)cc1 [Example 20, [2-(4-Methoxy-phenyl)-imidazo[1,2-a]pyridin-7-yl]-dimethyl-amine]
39 | CN(C)c1ccn2cc(-c3ccc4c(c3)OCCO4)nc2c1 [Example 22, [2-(2,3-Dihydro-benzo[1,4]dioxin-6-yl)-imidazo[1,2-a]pyridin-7-yl]-dimethyl-amine]
27 | CN(CCF)c1ccn2cc(-c3ccc4c(c3)OCCO4)nc2c1 [Example 23, [2-(2,3-Dihydro-benzo[1,4]dioxin-6-yl)-imidazo[1,2-a]pyridin-7-yl]-(2-fluoro-ethyl)-methyl-amine]
54 | CNc1ccn2cc(-c3cccc(C)c3)nc2c1 [Example 25, N-Methyl-2-m-tolylimidazo[1,2-a]pyridin-7-amine]
52 | Cc1ccc(-c2cn3ccc(N(C)C)cc3n2)cc1 [Example 27, N,N-Dimethyl-(2-p-tolyl-imidazo[1,2-a]pyridin-7-yl)-amine]
23 | CN(C)c1ccc(-c2cn3ccc(N(C)CCF)cc3n2)cc1 [Example 30, 2-(4-(Dimethylamino)phenyl)-N-(2-fluoroethyl)-N-methylimidazo[1,2-a]pyridin-7-amine]
36 | COc1cccc(-c2cn3ccc(N(C)C)cc3n2)c1 [Example 32, [2-(3-Methoxy-phenyl)-imidazo[1,2-a]pyridin-7-yl]-dimethyl-amine]
5 | FCCC1CCN(c2ccn3cc(-c4ccc5c(c4)OCCO5)nc3c2)CC1 [Example 33, 2-(2,3-Dihydro-benzo[1,4]dioxin-6-yl)-7-[4-(2-fluoro-ethyl)-piperidin-1-yl]-imidazo[1,2-a]pyridine]
42 | CN(CCF)c1ccn2cc(-c3ccc4c(c3)OCO4)nc2c1 [Example 39, (2-Benzo[1,3]dioxol-5-yl-imidazo[1,2-a]pyridin-7-yl)-(2-fluoro-ethyl)-methyl-amine]

Further lines, the compound ahead of its results:

Compound | % displacement of [3H]T808 (10 nM) at 10 nM [%]
2-Benzo[1,3]dioxol-5-yl-7-[4-(2-fluoro-ethyl)-piperidin-1-yl]-imidazo[1,2-a]pyridine [Example 21] | 7
COc1ccc(-c2cn3ccc(N4CC[C@H](F)C4)cc3n2)cc1 [6 (S), (S)-7-(3-Fluoropyrrolidin-1-yl)-2-(4-methoxyphenyl)imidazo[1,2-a]pyridine] | 8
CN(C)c1ccn2cc(-c3ccccc3)nc2c1 [Example 3, N,N-Dimethyl-2-phenylimidazo[1,2-a]pyridin-7-amine] | 59
FC1CCN(c2ccn3cc(-c4ccccc4)nc3c2)CC1 [Example 5, 7-(4-Fluoropiperidin-1-yl)-2-phenylimidazo[1,2-a]pyridine] | 21
COc1cccc(-c2cn3ccc(N4CCCCC4)cc3n2)c1 [Example 8, 2-(3-Methoxy-phenyl)-7-piperidin-1-yl-imidazo[1,2-a]pyridine] | 25
COc1cccc(-c2cn3ccc(N4CCOCC4)cc3n2)c1 [Example 10, 2-(3-Methoxy-phenyl)-7-morpholin-4-yl-imidazo[1,2-a]pyridine] | 27
COc1ccc(-c2cn3ccc(N4CCCCC4)cc3n2)cc1 [Example 12, 2-(4-Methoxy-phenyl)-7-piperidin-1-yl-imidazo[1,2-a]pyridine] | 30
COc1ccc(-c2cn3ccc(N4CCOCC4)cc3n2)cc1 [Example 13, 2-(4-Methoxy-phenyl)-7-morpholin-4-yl-imidazo[1,2-a]pyridine] | 40
CN(C)c1ccc(-c2cn3ccc(N(C)C)cc3n2)cc1 [Example 16, [2-(4-Dimethylamino-phenyl)-imidazo[1,2-a]pyridin-7-yl]-dimethyl-amine] | 29
COc1ccc(-c2cn3ccc(N4CCC4)cc3n2)cc1 [Example 24, 7-Azetidin-1-yl-2-(4-methoxy-phenyl)-imidazo[1,2-a]pyridine] | 54
Cc1cccc(-c2cn3ccc(N(C)C)cc3n2)c1 [Example 26, N,N-Dimethyl-(2-m-tolyl-imidazo[1,2-a]pyridin-7-yl)-amine] | 53
CNc1ccn2cc(-c3ccc(C)cc3)nc2c1 [Example 28, N-Methyl-(2-p-tolyl-imidazo[1,2-a]pyridin-7-yl)-amine] | 57
Cc1ccc(-c2cn3ccc(N(C)CCF)cc3n2)cc1 [Example 29, N-(2-Fluoroethyl)-N-methyl-(2-p-tolyl-imidazo[1,2-a]pyridin-7-yl)-amine] | 38
F[C@H]1CCN(c2ccn3cc(-c4ccccc4)nc3c2)C1 [Example 31, (S)-7-(3-Fluoropyrrolidin-1-yl)-2-phenyl-imidazo[1,2-a]pyridine] | 31
Cc1cccc(-c2cn3ccc(N(C)CCF)cc3n2)c1 [Example 34, (2-Fluoro-ethyl)-methyl-(2-m-tolyl-imidazo[1,2-a]pyridin-7-yl)-amine] | 41
Cc1cccc(-c2cn3ccc(N4CCOCC4)cc3n2)c1 [Example 35, 7-Morpholin-4-yl-2-m-tolyl-imidazo[1,2-a]pyridine] | 27
Cc1ccc(-c2cn3ccc(N4CCOCC4)cc3n2)cc1 [Example 36, 7-Morpholin-4-yl-2-p-tolyl-imidazo[1,2-a]pyridine] | 23
CNc1ccn2cc(-c3ccc4c(c3)OCO4)nc2c1 [Example 37, (2-Benzo[1,3]dioxol-5-yl-imidazo[1,2-a]pyridin-7-yl)-methyl-amine] | 60
CN(C)c1ccn2cc(-c3ccc4c(c3)OCO4)nc2c1 [Example 38, (2-Benzo[1,3]dioxol-5-yl-imidazo[1,2-a]pyridin-7-yl)-dimethyl-amine] | 52

Same assay, conditions: compound 1 uM, radioligand [3H]T808 10 nM

% displacement of [3H]T808 (10 nM) at 1 uM [%] | Compound
93 | FCCNc1ccn2cc(-c3ccccc3)nc2c1 [Example 1, N-(2-Fluoroethyl)-2-phenylimidazo[1,2-a]pyridin-7-amine 2,2,2-trifluoroacetate]
90 | CN(CCF)c1ccn2cc(-c3ccccc3)nc2c1 [Example 2, N-(2-Fluoroethyl)-N-methyl-2-phenylimidazo[1,2-a]pyridin-7-amine]
93 | CNc1ccn2cc(-c3ccccc3)nc2c1 [Example 4, N-Methyl-2-phenylimidazo[1,2-a]pyridin-7-amine]

Continued, compound first:

Compound | % displacement of [3H]T808 (10 nM) at 1 uM [%]
CN(C)c1ccn2cc(-c3ccccc3)nc2c1 [Example 3, N,N-Dimethyl-2-phenylimidazo[1,2-a]pyridin-7-amine] | 92
FC1CCN(c2ccn3cc(-c4ccccc4)nc3c2)CC1 [Example 5, 7-(4-Fluoropiperidin-1-yl)-2-phenylimidazo[1,2-a]pyridine] | 82
